Assay results as given in US7977466B2, “C-glycoside derivatives and salts thereof” (Astellas Pharma Inc., priority 2003, dated 2011).

Key:
human SGLT2 = molecular target: T1, human SGLT2 (Homo sapiens, UniProt P31639); assay: Inhibition of human Na+-glucose cotransporter (human SGLT2) activity: methyl-α-D-glucopyranoside intake in CHO cells stably expressing human SGLT2; assay type: cell-based; details: CHO cell stably expressing human SGLT2; methyl-α-D-(U-14C)glucopyranoside intake, 37° C., two hours
T1 construct: expressed in transfected cells; host or cells: CHO-K1
T1 sequence (P31639 1-672): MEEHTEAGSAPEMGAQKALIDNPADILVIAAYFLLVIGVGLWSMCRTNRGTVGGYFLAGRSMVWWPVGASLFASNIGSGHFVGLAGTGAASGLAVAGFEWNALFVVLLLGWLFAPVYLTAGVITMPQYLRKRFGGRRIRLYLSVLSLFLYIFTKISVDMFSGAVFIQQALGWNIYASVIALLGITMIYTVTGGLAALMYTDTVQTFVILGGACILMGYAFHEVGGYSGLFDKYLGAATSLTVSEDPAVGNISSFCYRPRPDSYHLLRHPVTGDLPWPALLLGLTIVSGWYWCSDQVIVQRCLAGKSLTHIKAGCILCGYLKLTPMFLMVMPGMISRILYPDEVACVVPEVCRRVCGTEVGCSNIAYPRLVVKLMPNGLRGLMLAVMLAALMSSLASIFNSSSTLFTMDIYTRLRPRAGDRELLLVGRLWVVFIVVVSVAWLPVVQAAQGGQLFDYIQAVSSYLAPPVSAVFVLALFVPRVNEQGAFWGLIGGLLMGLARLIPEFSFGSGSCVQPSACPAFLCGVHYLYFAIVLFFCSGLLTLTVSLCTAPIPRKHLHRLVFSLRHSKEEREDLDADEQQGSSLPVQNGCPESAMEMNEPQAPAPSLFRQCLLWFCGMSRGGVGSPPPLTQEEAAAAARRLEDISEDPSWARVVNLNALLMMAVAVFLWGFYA
Source text: Inhibition of Human Na^+-Glucose Cotransporter (Human SGLT2) Activity
(1) Preparation of Human SGLT 2 Expression Vector
First, single-strand cDNA was reversely transcripted from total RNA originating from the human kidney (manufactured by BD Biosciences Clontech) using a Superscript II (manufactured by Invitrogen Corporation) and a random hexamer. Second, using the cDNA as a template, a DNA fragment encoding a human SGLT2 (Wells, R. G. et al., Am. J. Physiol., 1992, 263(3) F459) was amplified by the PCR reaction using Pyrobest DNA polymerase (manufactured by Takara Bio Inc.). That is, a Hind III site and an EcoRI site were inserted into the 5′ side and the 3′ side of the DNA fragment, respectively by using primers.
The amplified fragment was cloned into a pCR2.1-Topo vector using a Topo TA Cloning Kit (manufactured by Invitrogen Corporation) and the cloned vector was transfected into a competent cell of Escherichia coli JM109. Ampicillin-resistant clones were cultured in a LB medium containing ampicillin (100 mg/l). A plasmid was purified from the cultured Escherichia coli using the method of Hanahan (see Maniatis et al., “Molecular Cloning”). A DNA fragment for encoding a human SGLT2 was obtained by the Hind III/EcoRI digestion of the plasmid and ligated and cloned to the same site of the expression vector pcDNA 3.1 (manufactured by Invitrogen Corporation) using a DNA ligase (manufactured by Roche Diagnostics). The ligated clone was transfected into a competent cell of Escherichia coli JM109 in the same manner as described above and cultured in a LB medium containing ampicillin, and a human SGLT2 expression vector was obtained using the method of Hanahan.
(2) Preparation of Human SGLT2 Expressed Cells
The human SGLT2 expression vector was transfected into a CHO-K1 cell using Lipofectamine2000 (manufactured by Invitrogen Corporation). The cell was cultured in a Ham's F12 medium (manufactured by Nissui Pharmaceutical Co., Ltd.) containing penicillin (50 IU/ml, manufactured by Dainippon Pharmaceutical Co., Ltd.), streptomycin (50 μg/ml, manufactured by Dainippon Pharmaceutical Co., Ltd.), Geneticin (40 μg/ml, manufactured by Invitrogen Corporation), and 10% fetal bovine serum in the presence of 5% CO2 at 37° C. for two weeks, and Geneticin-resistant clones were obtained.
(3) Inhibition of methyl-α-D-glucopyranoside Intake
After removing the medium of a CHO cell which stably expresses the human SGLT2, a pretreatment buffer solution (buffer solution of pH 7.4 containing choline chloride (140 mM), potassium chloride (2 mM), calcium chloride (1 mM), magnesium chloride (1 mM), 2-[4-(2-hydroxyethyl)1-piperazinyl]ethanesulfonic acid (10 mM), and tris(hydroxymethyl)aminomethane (5 mM)) was added in the amount of 100 μl per well, and incubated at 37° C. for 20 minutes.
11 μl of methyl-α-D-(U-14C)glucopyranoside (manufactured by Amersham Pharmacia Biotech) was mixed with 1,000 μl of a buffer solution for intake containing a test compound (buffer solution of pH 7.4 containing sodium chloride (140 mM), potassium chloride (2 mM), calcium chloride (1 mM), magnesium chloride (1 mM), methyl-α-D-glucopyranoside (50 μM), 2-[4-(2-hydroxy ethyl)1-piperazinyl]ethanesulfonic acid (10 mM), and tris(hydroxymethyl)aminomethane (5 mM)) to prepare a buffer solution for intake. A buffer solution for intake without a test compound was prepared for a control group. A buffer solution for basal intake without a test compound containing choline chloride (140 mM) instead of sodium chloride for measuring the basal intake was prepared as well.
After removing the pretreatment buffer solution, the buffer solution for intake was added (25 μl per well) and incubated at 37° C. for two hours. […]

[1] = tested on: blood glucose of KK-A^y mice; assay: Hypoglycemic activity confirmation test in fed KK-Ay mice; assay type: in vivo, mouse; details: fed male KK-A^y mice, oral, suspension 1 mg/10 ml in 0.5% methylcellulose at 10 ml/kg
Procedure: Hypoglycemic Activity Confirmation Test
Fed KK-A^y mice (CLEA Japan, Inc., male) were used. The test compound was suspended in 0.5% methylcellulose solution to a concentration of 1 mg/10 ml. The weight of each mouse was measured. The test compound suspension was orally administered to the mice at a dose of 10 ml/kg. Only 0.5% methylcellulose solution was administered to the mice of a control group. Each group consisted of six mice. Blood was collected from the tail vein immediately before administering the compound and one, two, four, and eight hours after administering the compound. The blood glucose value was measured using a glucose CII Test Wako (manufactured by Wako Pure Chemical Industries, Ltd.). The intensity of hypoglycemic activity was determined by calculating the area under the blood glucose value-time curve (AUC) using a trapezoidal method from the glucose value of 0-8 hours after administering the compound and calculating the rate (%) of the decrease in the AUC of the drug-administered group from that of the control group.

IC50 (human SGLT2) [nM] | Compound | Hypoglycemic activity (rate of decrease in blood glucose AUC 0-8 hours versus control group) [1] [%]
3.8 | COc1cc(OC)c([C@@H]2O[C@H](CO)[C@@H](O)[C@H](O)[C@H]2O)cc1Cc1cc2ccccc2s1 [Example 141] | 34
6.5 | CCc1ccc(Cc2nc([C@@H]3O[C@H](CO)[C@@H](O)[C@H](O)[C@H]3O)c(Cl)nc2Cl)cc1 [Example 150] | 
14 | COc1ccc([C@@H]2O[C@H](CO)[C@@H](O)[C@H](O)[C@H]2O)cc1Cc1cc2ccccc2s1 [Example 134] | 39
13 | COc1ccc(Cc2cc3ccccc3s2)cc1[C@@H]1O[C@H](CO)[C@@H](O)[C@H](O)[C@H]1O [Example 117] | 
21 | OC[C@H]1O[C@@H](c2cc(Cc3cc4ccccc4s3)c(O)cc2O)[C@H](O)[C@@H](O)[C@@H]1O [Example 142] | 
6.6 | OC[C@H]1O[C@@H](c2cc(Cc3cc4ccsc4s3)ccc2O)[C@H](O)[C@@H](O)[C@@H]1O [Example 174] | 
